Results from ChEMBL document CHEMBL1201862, “PubChem BioAssay data set” (2004).
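Dose response: 5 concentrations. Exposure: 48 h. Format: 96-well plates. Endpoint: linear interpolation; highest concentration if not reached. GI50 = concentration required for 50% inhibition of growth.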 Activity calls are given as the source filed them. No stated cut-off is given here; in the data, active = GI50 up to about 1.1 µM and inactive = higher.

Columns and labels:
Assay in all cases: DTP human tumour cell line panel, 48 h
A498 = test system: A498
ACHN = test system: ACHN
CCRF-CEM = test system: CCRF-CEM
HCT-15 = test system: HCT-15
HL-60 = test system: HL-60
HOP-92 = test system: HOP-92
HT-29 = test system: HT-29
K562 = test system: K562
LXFL 529 = test system: LXFL 529
MOLT-4 = test system: MOLT-4
OVCAR-4 = test system: OVCAR-4
SK-MEL-28 = test system: SK-MEL-28
SK-MEL-2 = test system: SK-MEL-2
SK-MEL-5 = test system: SK-MEL-5
SK-OV-3 = test system: SK-OV-3
SN12C = test system: SN12C
SW-620 = test system: SW-620
UACC-257 = test system: UACC-257
BT-549 = test system: BT-549
MCF7 = test system: MCF7

Compound	GI50 (A498)	GI50 (ACHN)	GI50 (CCRF-CEM)	GI50 (HCT-15)	GI50 (HL-60)	GI50 (HOP-92)	GI50 (HT-29)	GI50 (K562)	GI50 (LXFL 529)	GI50 (MOLT-4)	GI50 (OVCAR-4)	GI50 (SK-MEL-28)	GI50 (SK-MEL-2)	GI50 (SK-MEL-5)	GI50 (SK-OV-3)	GI50 (SN12C)	GI50 (SW-620)	GI50 (UACC-257)	GI50 (BT-549)	GI50 (MCF7)
CCOCN/C(N)=N\C#N	> 100 µM (inactive)	> 100 µM (inactive)	> 100 µM (inactive)	20.5 µM	> 100 µM (inactive)	> 100 µM (inactive)	> 100 µM (inactive)	66.1 µM (inactive)	> 100 µM (inactive)	> 100 µM (inactive)	> 10 µM (inactive)	> 100 µM (inactive)	> 100 µM (inactive)	> 100 µM (inactive)	> 100 µM (inactive)	> 100 µM (inactive)	18.3 µM (inactive)	> 100 µM (inactive)	–	–
CCCN1CN(C(C(=O)N[C@@H]2C(=O)N3C(C(=O)O)=C(C)CSC23)c2ccc(O)cc2)CSC1=S (some centres not stated)	> 100 µM (inactive)	> 100 µM (inactive)	66.8 µM (inactive)	> 100 µM	65.9 µM (inactive)	> 100 µM (inactive)	> 100 µM (inactive)	80 µM (inactive)	> 100 µM (inactive)	57.3 µM (inactive)	> 100 µM (inactive)	> 100 µM (inactive)	> 100 µM (inactive)	> 100 µM (inactive)	> 100 µM (inactive)	> 100 µM (inactive)	14.2 µM (inactive)	> 100 µM (inactive)	–	–
COC1C(O)CC(OC2CC(OC3CC(O[C@@H]4C(=O)c5c(cc6cc(OC7CC(OC8CC(O)C(O)C(C)O8)C(O)C(C)O7)c(C)c(O)c6c5O)C[C@H]4[C@H](OC)C(=O)[C@@H](O)[C@@H](C)O)OC(C)C3O)OC(C)C2O)OC1C (some centres not stated)	–	< 0.0191 µM (active)	–	0.673 µM	–	< 0.014 µM (active)	< 0.0168 µM (active)	–	0.0129 µM (active)	< 0.0159 µM (active)	0.0671 µM (active)	< 0.0126 µM (active)	< 0.0129 µM (active)	< 0.0138 µM (active)	< 0.0236 µM (active)	< 0.0197 µM (active)	< 0.0228 µM (active)	< 0.0166 µM (active)	< 0.01 µM (active)	–
Cn1cc2ccccc2c1-c1nc(N)nc(F)n1	15.6 µM (inactive)	> 100 µM (inactive)	> 100 µM (inactive)	> 100 µM	> 100 µM (inactive)	> 100 µM (inactive)	> 100 µM (inactive)	> 100 µM (inactive)	> 100 µM (inactive)	> 100 µM (inactive)	> 100 µM (inactive)	> 100 µM (inactive)	> 100 µM (inactive)	> 100 µM (inactive)	> 100 µM (inactive)	> 100 µM (inactive)	78.3 µM (inactive)	> 100 µM (inactive)	–	–
COc1ccc2nc(NC(=O)C(=O)C(C#N)c3ccc(CC#N)cc3)sc2c1 (configuration not stated)	> 100 µM (inactive)	> 100 µM (inactive)	> 100 µM (inactive)	> 100 µM	> 100 µM (inactive)	96.8 µM (inactive)	> 100 µM (inactive)	> 100 µM (inactive)	> 100 µM (inactive)	> 100 µM (inactive)	> 100 µM (inactive)	> 100 µM (inactive)	> 100 µM (inactive)	> 100 µM (inactive)	> 100 µM (inactive)	> 100 µM (inactive)	> 100 µM (inactive)	> 100 µM (inactive)	–	–
O=C1c2cc(CCl)sc2C(=O)c2ccsc21	1.63 µM (inactive)	0.327 µM (active)	0.173 µM (active)	0.393 µM	0.0559 µM (active)	0.427 µM (active)	1.16 µM (inactive)	0.158 µM (active)	0.243 µM (active)	0.179 µM (active)	0.184 µM (active)	0.0634 µM (active)	0.153 µM (active)	0.0416 µM (active)	1.85 µM (inactive)	0.277 µM (active)	0.195 µM (active)	0.181 µM (active)	–	0.197 µM (active)
O=C(C#Cc1ccccc1)NC/C=C/c1ccccc1	52 µM (inactive)	42.6 µM (inactive)	36.8 µM (inactive)	38.9 µM	24.1 µM (inactive)	25.4 µM (inactive)	50.2 µM (inactive)	33.6 µM (inactive)	38.2 µM (inactive)	33.6 µM (inactive)	48.1 µM (inactive)	76.4 µM (inactive)	35.5 µM (inactive)	45.1 µM (inactive)	22.2 µM (inactive)	49.9 µM (inactive)	36.9 µM (inactive)	> 100 µM (inactive)	–	–
Nc1nc[n+](Cc2ccccc2CCO)c2[nH]cnc12	> 100 µM (inactive)	> 100 µM (inactive)	> 100 µM (inactive)	> 100 µM	> 100 µM (inactive)	> 100 µM (inactive)	> 100 µM (inactive)	> 100 µM (inactive)	> 100 µM (inactive)	> 100 µM (inactive)	> 100 µM (inactive)	> 100 µM (inactive)	> 100 µM (inactive)	> 100 µM (inactive)	> 100 µM (inactive)	> 100 µM (inactive)	> 100 µM (inactive)	> 100 µM (inactive)	–	–
